In patent US11986471B2, “Compounds and methods of use” (Tango Therapeutics, Inc., priority 2018, dated 2024):

What was measured:
HAP1 MTAP-intact = experiment: SDMA in-cell western assay, HAP1 MTAP-intact cell line; assay type: cell-based; settings: Homo sapiens
In short: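 HAP1 isogenic pair: endogenous MTAP vs MTAP-null. Readout SDMA by in-cell western; IC50 per line. Ratio ≥3 fold = MTAP-selective.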

HAP1 MTAP-deleted = experiment: SDMA in-cell western assay, HAP1 MTAP-deleted cell line; assay type: cell-based; settings: for IC50: Homo sapiens, HAP1 MTAP-deleted cell line; for MTAP Intact/Deleted Ratio: IC50 ratio HAP1 MTAP-intact / HAP1 MTAP-deleted
In short: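 IC50 from SDMA in-cell western; HAP1 line lacking MTAP (null), paired isogenically with MTAP-intact HAP1 expressing endogenous MTAP.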

PRMT5 [1] = molecular target: T1, PRMT5 (Homo sapiens, UniProt O14744); experiment: PRMT5 IC50 assay with no cofactor; assay type: biochemical
T1 construct: purchased Viva (custom protein)
In short: (§1)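 Three cofactor conditions are run: SAM-bound, MTA-bound and cofactor-free enzyme. IC50 is read from each; for the SAM and MTA arms it is divided by 1.5 and 13.5 respectively to give Ki.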

PRMT5 [2] = molecular target: T1, PRMT5; experiment: PRMT5 IC50 assay in the presence of SAM as cofactor; assay type: biochemical
In short: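 Human PRMT5 inhibition, IC50 in μM; cofactor varied (SAM / MTA / none).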

PRMT5 [3] = molecular target: T1, PRMT5; experiment: PRMT5 IC50 assay in the presence of MTA as cofactor; assay type: biochemical; settings: for IC50: PRMT5, MTA as cofactor; for SAM/MTA Ratio: ratio between the Ki in the presence of SAM and the Ki in the presence of MTA
In short: as §1

T1 sequence (O14744 whole entry): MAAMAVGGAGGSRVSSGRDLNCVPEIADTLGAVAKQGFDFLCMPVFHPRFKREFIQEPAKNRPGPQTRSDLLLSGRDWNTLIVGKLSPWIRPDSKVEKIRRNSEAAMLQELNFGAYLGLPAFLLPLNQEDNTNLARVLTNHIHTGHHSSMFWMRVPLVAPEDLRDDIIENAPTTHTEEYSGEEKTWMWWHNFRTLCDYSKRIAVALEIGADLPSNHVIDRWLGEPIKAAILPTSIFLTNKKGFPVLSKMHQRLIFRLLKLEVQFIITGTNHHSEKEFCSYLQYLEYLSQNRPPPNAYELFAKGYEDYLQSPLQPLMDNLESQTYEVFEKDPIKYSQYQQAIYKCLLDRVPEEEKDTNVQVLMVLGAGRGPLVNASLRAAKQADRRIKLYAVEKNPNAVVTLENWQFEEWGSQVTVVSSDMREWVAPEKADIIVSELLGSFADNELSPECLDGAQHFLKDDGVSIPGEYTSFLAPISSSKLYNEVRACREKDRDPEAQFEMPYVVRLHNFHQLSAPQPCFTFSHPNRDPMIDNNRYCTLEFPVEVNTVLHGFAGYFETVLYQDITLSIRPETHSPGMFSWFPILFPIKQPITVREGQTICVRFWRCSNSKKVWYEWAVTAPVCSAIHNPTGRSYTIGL
T1 sequence (Q9BQA1 whole entry partner): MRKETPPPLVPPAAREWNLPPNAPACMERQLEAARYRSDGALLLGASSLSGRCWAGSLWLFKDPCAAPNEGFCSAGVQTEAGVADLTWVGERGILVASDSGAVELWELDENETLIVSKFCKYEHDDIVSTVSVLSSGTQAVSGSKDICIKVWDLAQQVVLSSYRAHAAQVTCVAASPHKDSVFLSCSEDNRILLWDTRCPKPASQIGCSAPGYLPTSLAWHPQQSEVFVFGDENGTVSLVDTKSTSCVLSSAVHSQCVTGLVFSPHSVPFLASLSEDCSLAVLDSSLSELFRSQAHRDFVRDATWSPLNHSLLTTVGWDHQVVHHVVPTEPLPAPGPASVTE

SMILES	IC50 (HAP1 MTAP-intact)	IC50 (HAP1 MTAP-deleted)	IC50 (PRMT5 [1])	IC50 (PRMT5 [2])	IC50 (PRMT5 [3])	MTAP Intact/Deleted Ratio (HAP1 MTAP-deleted)	SAM/MTA Ratio (PRMT5 [3])
Cc1c(OCc2cnco2)ccc2c1CCN(C[C@@H](O)CNC(=O)c1cc(N[C@H]3CC[C@H](C(=O)N4CCCCC4)CC3)ncn1)C2 [Compound 589, N-[(2S)-2-hydroxy-3-{5-methyl-6-[(1,3-oxazol-5-yl)methoxy]-1,2,3,4-tetrahydroisoquinolin-2-yl}propyl]-6-{((1r,4r)-4-(piperidine-1-carbonyl)cyclohexyl]amino}pyrimidine-4-carboxamide]	≥ 10000 nM	< 1000 nM	500 to 5000 nM	50 to 500 nM	50 to 500 nM	A* (an IC50 ratio greater than or equal to 10 fold between the IC50 in the HAP1 MTAP-intact cell line and the HAP1 MTAP-deleted cell line)	A (a Ki ratio greater than or equal to 10 fold between the Ki in the presence of SAM and the Ki in the presence of MTA)
CC(=O)N1CCC(Nc2cc(C(=O)NC[C@H](O)CN3CCc4c(ccc(OCc5ocnc5C)c4C)C3)cc(N3CCN(C(C)=O)CC3)n2)CC1 [Compound 590, 2-(4-acetylpiperazin-1-yl)-6-[(1-acetylpiperidin-4-yl)amino]-N-[(2S)-2-hydroxy-3-{5-methyl-6-[(4-methyl-1,3-oxazol-5-yl)methoxy]-1,2,3,4-tetrahydroisoquinolin-2-yl}propyl]pyridine-4-carboxamide]	≥ 10000 nM	1000 to 10000 nM	500 to 5000 nM	50 to 500 nM	50 to 500 nM	C* (an IC50 ratio of less than 3 fold between the IC50 in the HAP1 MTAP-intact cell line and the HAP1 MTAP-deleted cell line)	A (a Ki ratio greater than or equal to 10 fold between the Ki in the presence of SAM and the Ki in the presence of MTA)
COCCN(C)c1cc(C(=O)NC[C@H](O)CN2CCc3c(ccc(OCc4ocnc4C)c3C)C2)cc(NC2CCN(C(C)=O)CC2)n1 [Compound 592]	≥ 10000 nM	< 1000 nM	500 to 5000 nM	50 to 500 nM	50 to 500 nM	A* (an IC50 ratio greater than or equal to 10 fold between the IC50 in the HAP1 MTAP-intact cell line and the HAP1 MTAP-deleted cell line)	A (a Ki ratio greater than or equal to 10 fold between the Ki in the presence of SAM and the Ki in the presence of MTA)
CC(=O)N1CCC(Nc2cc(C(=O)NC[C@H](O)CN3CCc4c(ccc(OCc5ocnc5C)c4C)C3)cc(N3CCN(C)CC3)n2)CC1 [Compound 593]	≥ 10000 nM	1000 to 10000 nM	500 to 5000 nM	50 to 500 nM	50 to 500 nM	B* (an IC50 ratio greater than or equal to 3 fold but lower than 10 fold between the IC50 in the HAP1 MTAP-intact cell line and the HAP1 MTAP-deleted cell line)	A (a Ki ratio greater than or equal to 10 fold between the Ki in the presence of SAM and the Ki in the presence of MTA)
CC(=O)N1CCC(Nc2cc(C(=O)NC[C@H](O)CN3CCc4cc(OCc5ocnc5C)ccc4C3)cc(N3CCN(C(C)=O)CC3)n2)CC1 [Compound 594, 2-(4-acetylpiperazin-1-yl)-6-[(1-acetylpiperidin-4-yl)amino]-N-[(2S)-2-hydroxy-3-{6-[(4-methyl-1,3-oxazol-5-yl)methoxy]-1,2,3,4-tetrahydroisoquinolin-2-yl}propyl]pyridine-4-carboxamide]	≥ 10000 nM	1000 to 10000 nM	500 to 5000 nM	50 to 500 nM	50 to 500 nM	C* (an IC50 ratio of less than 3 fold between the IC50 in the HAP1 MTAP-intact cell line and the HAP1 MTAP-deleted cell line)	A (a Ki ratio greater than or equal to 10 fold between the Ki in the presence of SAM and the Ki in the presence of MTA)
Cc1ncoc1COc1ccc2c(c1)CCN(C[C@@H](O)CNC(=O)c1cc(NC3CCC3)nc(N3C4CCC3COC4)c1)C2 [Compound 598]	< 1000 nM	< 1000 nM	500 to 5000 nM	50 to 500 nM	50 to 500 nM	C* (an IC50 ratio of less than 3 fold between the IC50 in the HAP1 MTAP-intact cell line and the HAP1 MTAP-deleted cell line)	A (a Ki ratio greater than or equal to 10 fold between the Ki in the presence of SAM and the Ki in the presence of MTA)
Cc1ncoc1COc1cc2c(cc1F)CN(C[C@@H](O)CNC(=O)c1ccnc(Nc3cccnc3)c1)CC2 [Compound 600, N-[(2S)-3-[7-fluoro-6-[(4-methyloxazol-5-yl)methoxy]-3,4-dihydro-1H-isoquinolin-2-yl]-2-hydroxy-propyl]-2-(3-pyridylamino)pyridine-4-carboxamide]	≥ 10000 nM	1000 to 10000 nM	≥ 5000 nM	50 to 500 nM	50 to 500 nM	B* (an IC50 ratio greater than or equal to 3 fold but lower than 10 fold between the IC50 in the HAP1 MTAP-intact cell line and the HAP1 MTAP-deleted cell line)	A (a Ki ratio greater than or equal to 10 fold between the Ki in the presence of SAM and the Ki in the presence of MTA)

Now from value to molecule, other results behind:

IC50 (HAP1 MTAP-intact)	IC50 (HAP1 MTAP-deleted)	IC50 (PRMT5 [1])	IC50 (PRMT5 [2])	IC50 (PRMT5 [3])	SMILES	MTAP Intact/Deleted Ratio (HAP1 MTAP-deleted)	SAM/MTA Ratio (PRMT5 [3])
1000 to 10000 nM	< 1000 nM	500 to 5000 nM	50 to 500 nM	50 to 500 nM	CC(=O)N1CCC(Nc2cc(C(=O)NC[C@H](O)CN3CCc4cc(OCc5ocnc5C)ccc4C3)cc(N3CCCCC3)n2)CC1 [Compound 587, 2-[(1-acetylpiperidin-4-yl)amino]-N-[(2S)-2-hydroxy-3-{6-[(4-methyl-1,3-oxazol-5-yl)methoxy]-1,2,3,4-tetrahydroisoquinolin-2-yl}propyl]-6-(piperidin-1-yl)pyridine-4-carboxamide]	A* (an IC50 ratio greater than or equal to 10 fold between the IC50 in the HAP1 MTAP-intact cell line and the HAP1 MTAP-deleted cell line)	A (a Ki ratio greater than or equal to 10 fold between the Ki in the presence of SAM and the Ki in the presence of MTA)
≥ 10000 nM	1000 to 10000 nM	500 to 5000 nM	50 to 500 nM	50 to 500 nM	Cc1c(OCc2cnco2)ccc2c1CCN(C[C@@H](O)CNC(=O)c1ccnc(NC3CN(C(=O)C4CC4)C3)c1)C2 [Compound 588, (S)-2-((1-(cyclopropanecarbonyl)azetidin-3-yl)amino)-N-(2-hydroxy-3-(5-methyl-6-(oxazol-5-ylmethoxy)-3,4-dihydroisoquinolin-2(1H)-yl)propyl)isonicotinamide]	C* (an IC50 ratio of less than 3 fold between the IC50 in the HAP1 MTAP-intact cell line and the HAP1 MTAP-deleted cell line)	A (a Ki ratio greater than or equal to 10 fold between the Ki in the presence of SAM and the Ki in the presence of MTA)
1000 to 10000 nM	< 1000 nM	500 to 5000 nM	50 to 500 nM	< 50 nM	CC(=O)N1CCC(Nc2cc(C(=O)NC[C@H](O)CN3CCc4c(ccc(OCc5ocnc5C)c4C)C3)cc(N3CCCCC3)n2)CC1 [Compound 595]	A* (an IC50 ratio greater than or equal to 10 fold between the IC50 in the HAP1 MTAP-intact cell line and the HAP1 MTAP-deleted cell line)	A (a Ki ratio greater than or equal to 10 fold between the Ki in the presence of SAM and the Ki in the presence of MTA)
1000 to 10000 nM	< 1000 nM	50 to 500 nM	50 to 500 nM	< 50 nM	COc1cnc(NC2CCN(C(C)=O)CC2)cc1C(=O)NC[C@H](O)CN1CCc2cc(OCc3ocnc3C)ccc2C1 [Compound 597, (S)-2-((1-acetylpiperidin-4-yl)amino)-N-(2-hydroxy-3-(6-((4-methyloxazol-5-yl)methoxy)-3,4-dihydroisoquinolin-2(1H)-yl)propyl)-5-methoxyisonicotinamide]	B* (an IC50 ratio greater than or equal to 3 fold but lower than 10 fold between the IC50 in the HAP1 MTAP-intact cell line and the HAP1 MTAP-deleted cell line)	A (a Ki ratio greater than or equal to 10 fold between the Ki in the presence of SAM and the Ki in the presence of MTA)
1000 to 10000 nM	< 1000 nM	500 to 5000 nM	50 to 500 nM	50 to 500 nM	COc1cc(C(=O)NC[C@H](O)CN2CCc3cc(OCc4ocnc4C)ccc3C2)cc(NC2CCN(C(C)=O)CC2)n1 [Compound 599, (S)-2-((1-acetylpiperidin-4-yl)amino)-N-(2-hydroxy-3-(6-((4-methyloxazol-5-yl)methoxy)-3,4-dihydroisoquinolin-2(1H)-yl)propyl)-6-methoxyisonicotinamide]	A* (an IC50 ratio greater than or equal to 10 fold between the IC50 in the HAP1 MTAP-intact cell line and the HAP1 MTAP-deleted cell line)	A (a Ki ratio greater than or equal to 10 fold between the Ki in the presence of SAM and the Ki in the presence of MTA)
< 1000 nM	< 1000 nM	500 to 5000 nM	50 to 500 nM	< 50 nM	Cc1ncoc1COc1ccc2c(c1)CCN(C[C@@H](O)CNC(=O)c1cc(Nc3cccnc3)nc(N3CCCCC3)c1)C2 [Compound 601]	B* (an IC50 ratio greater than or equal to 3 fold but lower than 10 fold between the IC50 in the HAP1 MTAP-intact cell line and the HAP1 MTAP-deleted cell line)	A (a Ki ratio greater than or equal to 10 fold between the Ki in the presence of SAM and the Ki in the presence of MTA)
